Source: ChEMBL document CHEMBL5365403, “Synthesis of proposed structure of ledebourin A” (Bioorg Med Chem Lett, 2023)
Active and inactive are the calls of the source. The rule behind the calls is not given here.

Key:
[1] = tested on: HepG2; experiment: Hepatoprotective activity against GA-induced human HepG2 cells assessed as cell viability at 10 uM pre-incubated for 2 hrs followed by GA addition and measured after 22 hrs by MTT assay (Rvb=37% ); assay type: functional; settings: time 24 hrs, read-out: Activity
[2] = tested on: HepG2; experiment: Cytotoxicity against human HepG2 cells assessed as reduction cell viability at 10 uM after 24 hrs by MTT assay; assay type: toxicity, cell-based; settings: hepg2, 24 h
[3] = tested on: HepG2; experiment: Hepatoprotective activity against GA-induced human HepG2 cells assessed as reduction in Bax protein expression at 5 to 10 uM; assay type: functional, cell-based; settings: dose 5-10 µM

COc1ccc(C[C@H]2COc3c4c(cc(O)c3C2=O)OC(C)(C)C=C4)cc1
viability at 10 µM [1]: 51%
Activity [2]: Non-Toxic
Activity [3]: Active

COc1ccc(C[C@H]2COc3cc4c(c(O)c3C2=O)C=CC(C)(C)O4)cc1
viability at 10 µM [1]: 47%
Activity [2]: Non-Toxic
Activity [3]: Active
